System: healthy volunteers
Test: Phase 1 trial safety and tolerability
Type: in vivo, human
Conditions: for Clinically significant abnormality (N): Adverse events / Clinically significant abnormality (N): Clinical chemistry / Clinically significant abnormality (N): ECG / Clinically significant abnormality (N): Physical exam / Clinically significant abnormality (N): Urinalysis / Clinically significant abnormality (N): Vital signs / Clinically significant abnormality (N): pharHematology: n = 6
Description: A randomized, double-blind, placebo-controlled Phase 1 trial (ClinicalTrials.gov identifier: NCT05484414) (02/08/2022) was conducted to assess the safety, tolerability, food effect, pharmacokinetics (PK), and pharmacodynamics (PD) of single and multiple ascending doses of SRP-001 (Quotient Sciences, Miami FL USA; Fig. 3h - k and Methods). The trial was conducted in accordance with the International Council for Harmonisation of Technical Requirements for Pharmaceuticals for Human Use (ICH), Guideline for GCP: Consolidated Guidance (E6), attained Institutional Review Board approval, and all applicable regulatory requirements for Phase 1, First in Human clinical trials. Safety measurements and plasma samples to determine PK parameters were collected throughout the study for all subjects and reviewed by the Safety Review Committee. PK stopping criteria were established to assure that systemic exposure to SRP-001 was less than or equal to the systemic exposure achieved at the NOAEL doses in the 28-day repeat-dose toxicology studies in the rat and dog. The trial’s Safety Advisory Committee has approved the publication of the Phase 1 results.
SRP-001 was administered as an oral nanosuspension to 56 healthy volunteers across five Single Ascending Dose (SAD) and two Multiple Ascending Dose (MAD) cohorts, with 42 subjects receiving SRP-001 and 14 receiving a placebo.
A two-part randomized, double-blind, placebo-controlled Phase 1 trial was conducted to assess the safety, tolerability, PK and PD of SRP-001 ascending doses (Quotient Sciences, Miami, FL, USA). The study was conducted in accordance with the International Council for Harmonisation of Technical Requirements for Pharmaceuticals for Human Use (ICH), Guideline for GCP: Consolidated Guidance (E6), and applicable regulatory requirements(s) including clinical research guidelines established by the Basic Principles defined in the U.S. 21 CFR Parts 50, 56, and 312 and the principles enunciated in the Declaration of Helsinki (revised version Fortaleza 2013). The clinical protocol and informed consent form were reviewed and approved by an Institutional Review Board (IRB; Advarra IRB, 6100 Merriweather Drive, Suite 600, Columbia, MD 21,044; Quotient Protocol No. SRP-101 and Quotient Sciences Study No. QSC205130; Quotient Sciences Miami, 3898 NW 7th Street, Miami, FL 33,126.). The study comprises a SAD (Part 1) assessment that includes a food effect assessment that contributes data to inform a subsequent MAD (Part 2) dose-ranging study. Safety measurements were collected throughout the study for all subjects. Blood samples were collected to determine the PK parameters of SRP-001 (ClinicalTrials.gov identifier: NCT05484414) (02/08/2022).
NHVs also underwent continuous ECG Holter monitoring from at least 1 h prior to dosing until 24 h post-dose, and resulting measurements were monitored consistently. All ECGs were collected electronically using a Mortara H12 + Holter monitor. Specific procedures for ECG Holter recording and extractions were provided to the Investigator by the Central ECG Laboratory, Banook Group. On Day 1, continuous Holter recording commenced at least 1 h prior to dosing until 24 h post-dose. Subjects were required to rest in the supine position with no external stimuli (e.g. music or television) for 15 min prior to the nominal time point where an ECG extraction was scheduled. This extraction was taken by the third-party Holter provider at the planned time, and therefore, no other procedures were performed within the resting period. […] Subjects were allowed to move more freely outside of the primary ECG rest periods. Comfort breaks for hygienic purposes were allowed each morning well in advance of the required supine/ECG extraction points. […]

[1] = Cohort 1 (Regimen A), 300 mg SRP-001, Fasted
[2] = Cohort 2 (Regimen B), 600 mg SRP-001, Fasted
[3] = Cohort 3 (Regimen C), 900 mg SRP-001, Fasted
[4] = Cohort 4 (Regimen E), 2000 mg SRP-001, Fasted

CCN(CC)C(=O)c1ccccc1S(=O)(=O)NCC(=O)Nc1ccc(O)cc1 [SRP-001, N,N-diethyl-2-[[2-(4-hydroxyanilino)-2-oxo-ethyl]sulfamoyl]benzamide] was tested, and the “Clinically significant abnormality (N): Adverse events” value [1] was 0, the “Clinically significant abnormality (N): Clinical chemistry” value [1] was 0 and the “Clinically significant abnormality (N): ECG” value [1] was 0. The “Clinically significant abnormality (N): Physical exam” value [1] was 0, the “Clinically significant abnormality (N): Urinalysis” value [1] was 0 and the “Clinically significant abnormality (N): Vital signs” value [1] was 0. For the same compound, the “Clinically significant abnormality (N): pharHematology” value [1] was 0, the “Clinically significant abnormality (N): Adverse events” value [2] was 0 and the “Clinically significant abnormality (N): Clinical chemistry” value [2] was 0. For the same compound, the “Clinically significant abnormality (N): ECG” value [2] was 0, the “Clinically significant abnormality (N): Physical exam” value [2] was 0 and the “Clinically significant abnormality (N): Urinalysis” value [2] was 0. For the same compound, the “Clinically significant abnormality (N): Vital signs” value [2] was 0, the “Clinically significant abnormality (N): pharHematology” value [2] was 0 and the “Clinically significant abnormality (N): Adverse events” value [3] was 0. For the same compound, the “Clinically significant abnormality (N): Clinical chemistry” value [3] was 0, the “Clinically significant abnormality (N): ECG” value [3] was 0 and the “Clinically significant abnormality (N): Physical exam” value [3] was 0. For the same compound, the “Clinically significant abnormality (N): Urinalysis” value [3] was 0, the “Clinically significant abnormality (N): Vital signs” value [3] was 0 and the “Clinically significant abnormality (N): pharHematology” value [3] was 0. The “Clinically significant abnormality (N): Adverse events” value [4] was 0, the “Clinically significant abnormality (N): Clinical chemistry” value [4] was 0 and the “Clinically significant abnormality (N): ECG” value [4] was 0. The “Clinically significant abnormality (N): Physical exam” value [4] was 0, the “Clinically significant abnormality (N): Urinalysis” value [4] was 0 and the “Clinically significant abnormality (N): Vital signs” value [4] was 0. The “Clinically significant abnormality (N): pharHematology” value [4] was 0, the Emesis (Phase 1 MAD cohort) was “no emesis” and the “Safety assessments (vital signs, physical examinations, continuous ECG, laboratory tests)” value (SAD and MAD cohorts) was “revealed no abnormalities”. The “Serious adverse events (SAEs)” value (five SAD and two MAD cohorts, 42 subjects receiving SRP-001) was “no serious adverse events (SAEs) reported” and the Tolerability (oral nanosuspension, SAD and MAD cohorts) was “well tolerated”.
